{
  "source": "patent EP0972448A2",
  "about": "“Parasitic mite control on beneficial insects” (American Cyanamid Company, priority 1998, dated 2000)",
  "assay_type_in_all_cases": "in vivo",
  "key": {"[1]": {"system": "Acarapis woodi (trachea mites)", "assay": "Efficacy against Acarapis woodi parasites, contact with treated glass slides", "settings": "slides dipped in 500 ppm acetone solution", "description": "In this evaluation, honeybees (Apis mellifera) which are infested with Acarapis woodi (trachea mites) are dissected to remove the infested tracheae. Glass microscope slides are dipped into acetone solutions of tebufenpyrad (500 ppm)and the acetone is allowed to evaporate. Infested tracheae are placed directly on the treated slides. The mites are removed from the tracheae by dissection and forced to walk across the treated area. The elapsed time is recorded for 100% mortality, i.e. no movement is observed upon agitation."}, "Varroa jacobsoni": {"system": "Varroa jacobsoni", "assay": "Field evaluation against Varroa jacobsoni in infested beehives, stickyboard mite count", "settings": "two strips with 18% tebufenpyrad in 60:40 beeswax:lard, count taken 24 hours after treatment", "excerpt": "In this evaluation, two Varroa jacobsoni infested beehives are monitored for the extent of infestation using stickyboards inserted at the bottom of the hive. Data are presented as the number of mites trapped on the stickyboard per day. Two strips (2.5 x 17cm) containing 18% tebufenpyrad dissolved in a 60:40 beeswax:lard (Crisco®) mixture are inserted into each hive brood chamber as per standard practice. One day after treatment, the stickyboards are removed and the dead mites counted."}, "[2]": {"system": "Varroa jacobsoni (Varroa mites)", "assay": "Efficacy against Varroa jacobsoni parasites on topically treated infested honeybees", "settings": "1 µl acetone droplet on dorsal abdomen of bee, 5 days at 31°C", "description": "(§1) In this evaluation, honeybees (Apis mellifera) taken from hives which are 70-90% infested with Varroa jacobsoni (Varroa mites) are chilled to immobilize the bees. A 1 µl droplet of an acetone solution of tebufenpyrad is applied to the dorsal abdomen of each bee. Control bees receive 1 µl droplet of acetone. A total of 50-52 bees are treated for each dose rate tested. Treatment dose rates are based upon the LD50 (dose rate required to obtain 50% mortality of healthy uninfected bees) of tebufenypyrad and are set at 10% of the LD50 and subsequent 10-fold dilution thereof. The treated bees are placed in an incubator at 31°C in the dark and fed 50% sugar water ad libitum for 5 days. After incubation, the bees are examined for mortality and mite infestation. The results are shown in Table I below, as % mortality of the total of the bees and the total of the mites."}, "[3]": {"system": "honeybees (Apis mellifera)", "assay": "Mortality of topically treated honeybees in the Varroa jacobsoni evaluation", "settings": "1 µl acetone droplet on dorsal abdomen, 5 days at 31°C", "description": "as §1"}},
  "data": [
    {"smiles": "CCc1nn(C)c(C(=O)NCc2ccc(C(C)(C)C)cc2)c1Cl", "note": "[Tebufenpyrad, N-(4-t-butylbenzyl)-4-chloro-3-ethyl-1-methylpyrazole-5-carboxamide]", "values": [
      {"measurement": "Time required in minutes to achieve 100% mortality", "setting": "[1]; Rep. 1, 7 mites", "result": 8.5, "unit": "min"},
      {"measurement": "Time required in minutes to achieve 100% mortality", "setting": "[1]; Rep. 2, 10 mites", "result": 8, "unit": "min"},
      {"measurement": "Time required in minutes to achieve 100% mortality", "setting": "[1]; Rep. 3, 7 mites", "result": 8, "unit": "min"},
      {"measurement": "Treatment mites/day", "setting": "Varroa jacobsoni; Hive 1, pretreatment 101 mites/day", "result": 1777, "unit": "mites/day"},
      {"measurement": "Treatment mites/day", "setting": "Varroa jacobsoni; Hive 2, pretreatment 66 mites/day", "result": 1080, "unit": "mites/day"},
      {"measurement": "% Mortality Parasites", "setting": "[2]; dose 0.006 µg/bee", "result": 58, "unit": "%"},
      {"measurement": "% Mortality Parasites", "setting": "[2]; dose 0.06 µg/bee", "result": 44, "unit": "%"},
      {"measurement": "% Mortality Parasites", "setting": "[2]; dose 0.6 µg/bee", "result": 92, "unit": "%"},
      {"measurement": "% Mortality Bees", "setting": "[3]; dose 0.006 µg/bee", "result": 24, "unit": "%"},
      {"measurement": "% Mortality Bees", "setting": "[3]; dose 0.06 µg/bee", "result": 25, "unit": "%"},
      {"measurement": "% Mortality Bees", "setting": "[3]; dose 0.6 µg/bee", "result": 28, "unit": "%"}
    ]}
  ]
}
